# Tests used:
# Assay in all cases: General post-emergent herbicidal activity, foliar application
# Format in all cases: in vivo
# [1] = test system: Amaranthus retroflexus L. (pigweed, redroot); details: for pest or weed control at 70 g/ha: 70 g ai/ha; for pest or weed control at 280 g/ha: 280 g ai/ha
# Method: (§1) A weighed amount, determined by the highest rate to be tested, of each test compound was placed in a 25 mL glass vial and was dissolved in 4 mL of a 97:3 v/v (volume/volume) mixture of acetone and dimethyl sulfoxide to obtain concentrated stock solutions which will be referred to as General Purpose Solvent. […] The concentrated stock solutions obtained were diluted with 20 mL of an aqueous mixture containing water, General Purpose Solvent, isopropyl alcohol, Atplus 411F crop oil concentrate, and Triton X-155 surfactant in a 46:42:12:1.0:0.02 v/v ratio to obtain spray solutions containing the highest application rates. Additional application rates were obtained by serial dilution of 12 mL of the high rate solution into a solution containing 2 mL of 97:3 v/v (volume/volume) mixture of acetone and dimethyl sulfoxide and 10 mL of an aqueous mixture containing water, General Purpose Solvent, isopropyl alcohol, Atplus 411F crop oil concentrate, and Triton X-155 surfactant in a 46:42:12:1.0:0.02 v/v ratio to obtain 1/2×, 1/4×, 1/8× and 1/16× rates of the high rate. […] Control plants were sprayed in the same manner with the solvent blank.
# (§2) The treated plants and control plants were placed in a greenhouse as described above and watered by sub-irrigation to prevent wash-off of the test compounds. After 14 days, the condition of the test plants as compared with that of the untreated plants was determined visually and scored on a scale of 0 to 100 percent where 0 corresponds to no injury and 100 corresponds to complete kill.
# (§3) By applying the well-accepted probit analysis as described by J. Berkson in […], 48, 565 (1953) and by D. Finney in “Probit Analysis” Cambridge University Press (1952), the dose response data gathered as expressed above can be used to calculate GR20, GR50 and GR80 values, which are defined as growth reduction factors that correspond to the effective dose of herbicide required to kill or control 20 percent, 50 percent or 80 percent, respectively, of a target plant. Data not expressed in Table A may have been used to calculate some of the GR80 values in Table B. In some cases, the GR80 values may be extrapolations calculated based on the slope of the dose response curve for individual compounds listed in Table B.
# [2] = test system: Chenopodium album L. (lambsquarters, common); details: for pest or weed control at 140 g/ha: 140 g ai/ha; for pest or weed control at 35 g/ha: 35 g ai/ha; for pest or weed control at 70 g/ha: 70 g ai/ha; for pest or weed control at 280 g/ha: 280 g ai/ha
# Method: as §1, §2, §3
# [3] = test system: Echinochloa crus-galli (L.) Beauv. (barnyardgrass); details: for pest or weed control at 140 g/ha: 140 g ai/ha; for pest or weed control at 35 g/ha: 35 g ai/ha; for pest or weed control at 70 g/ha: 70 g ai/ha; for pest or weed control at 280 g/ha: 280 g ai/ha
# Method: as §1, §2, §3
# [4] = test system: Euphorbia heterophylla L. (poinsettia, wild); details: for pest or weed control at 140 g/ha: 140 g ai/ha; for pest or weed control at 35 g/ha: 35 g ai/ha; for pest or weed control at 70 g/ha: 70 g ai/ha; for pest or weed control at 280 g/ha: 280 g ai/ha
# Method: as §1, §2, §3
# [5] = test system: Helianthus annuus L. (sunflower, common); details: for pest or weed control at 140 g/ha: 140 g ai/ha; for pest or weed control at 280 g/ha: 280 g ai/ha
# Method: as §1, §2, §3
# [6] = test system: Viola tricolor L. (pansy); details: for pest or weed control at 140 g/ha: 140 g ai/ha; for pest or weed control at 280 g/ha: 280 g ai/ha
# Method: as §1, §2, §3
# [7] = test system: Oryza sativa L. (rice); details: scored after 14 days; for plant injury at 140 g/ha: 140 g ai/ha; for plant injury at 280 g/ha: 280 g ai/ha
# Method: as §1, §2
# [8] = test system: Zea mays L. (corn); details: 336 h, scored after 14 days, read-out: % Visual Growth Reduction ZEAMX; for plant injury at 140 g/ha: 140 g ai/ha; for plant injury at 35 g/ha: 35 g ai/ha; for plant injury at 280 g/ha: 280 g ai/ha
# Method: as §1, §2
# [9] = Amaranthus retroflexus, 336 h, 140 g ai/ha, foliar post-emergent, scored after 14 days, read-out: % Visual Growth Reduction AMARE
# [10] = Chenopodium album, 336 h, foliar post-emergent, scored after 14 days, read-out: % Visual Growth Reduction CHEAL
# [11] = Echinochloa crus-galli, 336 h, foliar post-emergent, scored after 14 days, read-out: % Visual Growth Reduction ECHCG
# [12] = Euphorbia heterophylla, 336 h, foliar post-emergent, scored after 14 days, read-out: % Visual Growth Reduction EPHHL
# [13] = Helianthus annuus, 336 h, foliar post-emergent, scored after 14 days, read-out: % Visual Growth Reduction HELAN
# [14] = Viola tricolor, 336 h, foliar post-emergent, scored after 14 days, read-out: % Visual Growth Reduction VIOTR
# [15] = Oryza sativa, 336 h, read-out: % Visual Growth Reduction ORYSA
# [16] = Amaranthus retroflexus, 336 h, foliar post-emergent, scored after 14 days, read-out: % Visual Growth Reduction AMARE
# [17] = calculated by probit analysis, dose for 80% visual injury, may be extrapolated
# [18] = Oryza sativa, 336 h, 35 g ai/ha, read-out: % Visual Growth Reduction ORYSA
# [19] = calculated, dose for 80% visual injury, prior art tables
Compound,"pest or weed control at 140 g/ha [1, 9] [%]","pest or weed control at 140 g/ha [2, 10] [%]","pest or weed control at 140 g/ha [3, 11] [%]","pest or weed control at 140 g/ha [4, 12] [%]","pest or weed control at 140 g/ha [5, 13] [%]","pest or weed control at 140 g/ha [6, 14] [%]","plant injury at 140 g/ha [7, 15] [%]",plant injury at 140 g/ha [8] [%],"pest or weed control at 70 g/ha [1, 16] [%]","pest or weed control at 280 g/ha [1, 16] [%]","pest or weed control at 35 g/ha [2, 10] [%]","pest or weed control at 70 g/ha [2, 10] [%]","pest or weed control at 280 g/ha [2, 10] [%]","pest or weed control at 35 g/ha [3, 11] [%]","pest or weed control at 280 g/ha [3, 11] [%]","pest or weed control at 280 g/ha [4, 12] [%]","pest or weed control at 280 g/ha [5, 13] [%]","pest or weed control at 280 g/ha [6, 14] [%]","plant injury at 280 g/ha [7, 15] [%]",plant injury at 280 g/ha [8] [%],also measured
"COC(=O)c1nc(C(C)CF)cc(N)c1Cl (stereo not drawn) [Compound F20, methyl 4-amino-3-chloro-6-(1-fluoropropan-2-yl)picolinate]",95,80,0,95,50,30,0,0,,,,,,,,,,,,,
"CC(F)c1cc(N)c(Cl)c(C(=O)O)n1 (stereo not drawn) [Compound F24, 4-Amino-3-chloro-6-(1-fluoroethyl)picolinic acid]",100,100,80,90,75,100,0,0,100,100,100,100,100,0,90,95,80,100,10,10,"pest or weed control at 35 g/ha ([1]; Amaranthus retroflexus, 336 h, 35 g ai/ha, foliar post-emergent, scored after 14 days, read-out: % Visual Growth Reduction AMARE): 90%; GR80 Value AMARE [1, 17]: 12.3 g ai/ha; GR80 Value CHEAL [2, 17]: <17.5 g ai/ha; pest or weed control at 70 g/ha [3, 11]: 55%; GR80 Value ECHCG [3, 17]: 165 g ai/ha; pest or weed control at 35 g/ha [4, 12]: 5%; pest or weed control at 70 g/ha [4, 12]: 80%; GR80 Value EPHHL [4, 17]: 122 g ai/ha; pest or weed control at 35 g/ha ([5]; Helianthus annuus, 336 h, 35 g ai/ha, foliar post-emergent, scored after 14 days, read-out: % Visual Growth Reduction HELAN): 50%; pest or weed control at 70 g/ha ([5]; Helianthus annuus, 336 h, 70 g ai/ha, foliar post-emergent, scored after 14 days, read-out: % Visual Growth Reduction HELAN): 65%; GR80 Value HELAN [5, 17]: 199 g ai/ha; pest or weed control at 35 g/ha ([6]; Viola tricolor, 336 h, 35 g ai/ha, foliar post-emergent, scored after 14 days, read-out: % Visual Growth Reduction VIOTR): 85%; pest or weed control at 70 g/ha ([6]; Viola tricolor, 336 h, 70 g ai/ha, foliar post-emergent, scored after 14 days, read-out: % Visual Growth Reduction VIOTR): 100%; GR80 Value VIOTR [6, 17]: 36.7 g ai/ha; plant injury at 35 g/ha [7, 18]: 0%; plant injury at 70 g/ha ([7]; Oryza sativa, 336 h, 70 g ai/ha, read-out: % Visual Growth Reduction ORYSA): 0%; plant injury at 35 g/ha [8]: 0%; plant injury at 70 g/ha ([8]; 70 g ai/ha): 0%"
"COC(=O)c1nc(C(Br)CBr)cc(N)c1Cl (stereo not drawn) [Compound F34, methyl 4-amino-3-chloro-6-(1,2-dibromoethyl)picolinate]",,,,,,,,,,,,,,,,,,,,,"pest or weed control at 264 g/ha ([1]; Amaranthus retroflexus, 336 h, 264 g ai/ha, foliar post-emergent, scored after 14 days, read-out: % Visual Growth Reduction AMARE): 0%; pest or weed control at 264 g/ha ([2]; Chenopodium album, 336 h, 264 g ai/ha, foliar post-emergent, scored after 14 days, read-out: % Visual Growth Reduction CHEAL): 60%; pest or weed control at 264 g/ha ([3]; Echinochloa crus-galli, 336 h, 264 g ai/ha, foliar post-emergent, scored after 14 days, read-out: % Visual Growth Reduction ECHCG): 0%; pest or weed control at 264 g/ha ([4]; Euphorbia heterophylla, 336 h, 264 g ai/ha, foliar post-emergent, scored after 14 days, read-out: % Visual Growth Reduction EPHHL): 10%; pest or weed control at 264 g/ha ([5]; Helianthus annuus, 336 h, 264 g ai/ha, foliar post-emergent, scored after 14 days, read-out: % Visual Growth Reduction HELAN): 80%; pest or weed control at 264 g/ha ([6]; Viola tricolor, 336 h, 264 g ai/ha, foliar post-emergent, scored after 14 days, read-out: % Visual Growth Reduction VIOTR): 0%; plant injury at 264 g/ha ([7]; Oryza sativa, 336 h, 264 g ai/ha, read-out: % Visual Growth Reduction ORYSA): 0%; plant injury at 264 g/ha ([8]; 264 g ai/ha): 0%"
"COC(=O)c1nc(CCl)cc(N)c1Cl [Compound F35, methyl 4-amino-3-chloro-6-(chloromethyl)picolinate]",,,,,,,,,,0,,,0,,0,0,0,0,0,0,
"C=C(F)c1nc(C(=O)OC)c(Cl)c(N)c1F [Compound F22, methyl 4-amino-3-chloro-5-fluoro-6-(1-fluorovinyl)picolinate]",90,90,0,50,80,10,0,0,,90,,,90,,0,60,80,10,0,0,
"COC(=O)c1nc(C(F)(F)F)cc(N)c1Cl [Prior Art 1, reference compound]",100,100,0,95,,95,,,80,,80,85,,0,,,,,,,"% Visual Growth Reduction AMARE ([1]; 140 g ai/ha, foliar post-emergent, scored after 14 days): 100%; pest or weed control at 70 g/ha [3, 11]: 0%; GR80 Values ECHCG [3, 19]: >140 g/ha; pest or weed control at 35 g/ha [4, 12]: 80%; pest or weed control at 70 g/ha [4, 12]: 85%; GR80 Values VIOTR [6, 19]: 121 g/ha; % Visual Growth Reduction ORYSA ([7]; 35 g ai/ha): 0%; plant injury at 35 g/ha [7, 18]: 0%; plant injury at 35 g/ha [8]: 0%"

# Reference: US9603364B2 (Dow AgroSciences LLC, priority 2013, dated 2017)
